Test results: patent US8404650B2, “Methods of treating cancer with doxazolidine and prodrugs thereof” (priority 2005, dated 2013)
Like-named read-outs stand apart in the source and are kept apart here.

Experiments:
MCF-7 = experiment: Growth inhibition of MCF-7 sensitive breast cancer cells (colony formation, crystal violet); type: cell-based, human
Description: (§1) In vitro Activity. […] This cell suspension was dispensed in 200 μL aliquots (1000 cells/well) into the inside wells of 96-well tissue culture plates. Outside wells contained 200 μL of media. […] The medium was replaced with 90 μL of growth medium prior to addition of the drug. Doxaz was dissolved in DMSO at concentrations ranging from 50 μM to 1 mM. […] Serial dilutions (1:3 and 1:10) were made in sterile DMSO to yield seven solutions of decreasing drug concentration at 100× the respective working concentrations. […] Additionally, two lanes were treated with 10 μL of growth medium containing 10% sterile DMSO and one lane was treated with 90 μL of 1.5 M Tris HCl. […]
(§2) Cell growth inhibition experiments initially focused on MCF-7, MCF-7/Adr, SK-HEP-1, and Hep G2 cancer cells as well as rat cardiomyocytes as a measure of cardiotoxicity and Vero cells (green monkey kidney cells) as an additional measure of normal cell toxicity.
(§3) Activity of plasmin-activated prodrugs.
(§4) A more thorough characterization of the growth inhibition of a variety of cancer cells as well as rat cardiomyocytes by Formula IV (aFK-PABC-Doxaz) was evaluated in comparison with inhibition of growth by Doxaz, Dox and aFK-PABC-Dox. Cells were treated with drug for 3 h and colony growth was measured at 3 to 5 days when cells reached about 80% confluence. […] The breast cancer cell lines represent the multi-drug resistant (MDR) phenotype with MCF-7/Adr cells and a cell line that is transfected with the gene for urokinase plasminogen activator (uPA), the primary enzyme responsible for cleavage of plasminogen to plasmin. Rat cardiomyocytes served as a model for comparison of drug cardiotoxicity.

MCF-7/Adr = experiment: Growth inhibition of multidrug resistant MCF-7/Adr breast cancer cells (crystal violet); type: cell-based; conditions: for IC50: read-out: IC50 MCF-7/Adr; for Growth inhibition IC50, MCF-7/Adr, 24 h: 24 h drug treatment
Description: as §1, §2, §3, §4

MDA-MB-435 = experiment: Growth inhibition of MDA-MB-435 breast cancer cells; type: cell-based; conditions: 3 h drug treatment, growth at 5 days; read-out: IC50 MDA-MB-435
Description: In vitro Activity. […] This cell suspension was dispensed in 200 μL aliquots (1000 cells/well) into the inside wells of 96-well tissue culture plates. Outside wells contained 200 μL of media. […] The medium was replaced with 90 μL of growth medium prior to addition of the drug. Doxaz was dissolved in DMSO at concentrations ranging from 50 μM to 1 mM. […] Serial dilutions (1:3 and 1:10) were made in sterile DMSO to yield seven solutions of decreasing drug concentration at 100× the respective working concentrations. […] Additionally, two lanes were treated with 10 μL of growth medium containing 10% sterile DMSO and one lane was treated with 90 μL of 1.5 M Tris HCl. The cells were incubated at 37° C. for 3 h, at which time the drug solutions were replaced with 200 μL of fresh growth medium.
as §3

cancer cells = conditions: background statement; cited from earlier work
SK-HEP-1 = experiment: Growth inhibition of SK-HEP-1 liver cancer cells; type: cell-based, human; conditions: crystal violet; for Growth inhibition IC50, SK-HEP-1, 24 h: 24 h drug treatment
Description: (§5) Cell growth inhibition experiments initially focused on MCF-7, MCF-7/Adr, SK-HEP-1, and Hep G2 cancer cells as well as rat cardiomyocytes as a measure of cardiotoxicity and Vero cells (green monkey kidney cells) as an additional measure of normal cell toxicity. […]

Hep G2 = experiment: Growth inhibition of Hep G2 liver cancer cells; type: cell-based, human; conditions: crystal violet; for Growth inhibition IC50, Hep G2, 24 h: 24 h drug treatment
Description: as §5

[1] = tested on: H9c2(2-1) rat cardiomyocytes; experiment: Growth inhibition of rat cardiomyocytes as a measure of cardiotoxicity; type: cell-based; conditions: for Growth inhibition IC50, H9c2(2-1), 24 h: 24 h drug treatment, crystal violet
Description: Biological activity of simple Doxazolidine carbamates. Since the prodrug carbamates were designed to be activated by carboxylesterases CES1 (hCE1) and/or CES2 (hiCE), cell lines of interest were measured for expression of the respective mRNAs using reverse transcription (RT) followed by PCR (polymerase chain reaction). Cancer cell lines investigated included SHP-77 resistant small cell lung, DU-145 prostate, MCF-7 sensitive breast, MCF-7/Adr resistant breast, SK-HEP-1 liver, and Hep G2 liver cells. As a measure of possible cardiotoxicity, H9c2(2-1) rat cardiomyocytes were also investigated. Cardiotoxicity is relevant because the ultimate product of metabolism and subsequent hydrolysis of these carbamates is doxorubicin, which is cardiotoxic. […] Additionally, the rat cardiomyocytes, H9c2(2-1), also express more CES2 than CES1.
Cell growth inhibition experiments initially focused on MCF-7, MCF-7/Adr, SK-HEP-1, and Hep G2 cancer cells as well as rat cardiomyocytes as a measure of cardiotoxicity and Vero cells (green monkey kidney cells) as an additional measure of normal cell toxicity. The butyl and pentyl carbamates inhibited the growth of MCF-7, MCF-7/Adr, and SK-HEP-1 cell lines with a 24 h drug treatment period with some selectivity for cancer cells over cardiomyocytes relative to growth inhibition by Dox as shown in Table 2. […] The relative inactivity of the ethyl carbamate may indicate that a substantial lipophilic interaction is required at the active site of the carboxylesterases to hold the Doxaz substrate.
Biological activity of Doxazolidine carbamates with self-eliminating spacer. […] SHP-77 small cell lung cancer cells were also of interest because they express modest amounts of both enzymes. Inhibition of the growth of cardiomyocytes was used as a measure of cardiotoxicity, and inhibition of the growth of Vero cells, green monkey kidney cells, was again used as another measure of toxicity to normal cells. They also show more activity against the cancer cells that express higher levels of CES1. Of particular note is the higher activity against Hep G2 cells than against SK-HEP-1 cells. […] The low toxicity of pentyl PABC-Doxaz to cardiomyocytes relative to the toxicity of Dox is encouraging and consistent with the low level of expression of CES1 in cardiomyocytes.
A more thorough characterization of the growth inhibition of a variety of cancer cells as well as rat cardiomyocytes by Formula IV (aFK-PABC-Doxaz) was evaluated in comparison with inhibition of growth by Doxaz, Dox and aFK-PABC-Dox. Cells were treated with drug for 3 h and colony growth was measured at 3 to 5 days when cells reached about 80% confluence. The cancer cells included one prostate cancer cell line (DU-145), three related breast cancer cell lines (MCF-7, MCF-7/Adr, and MCF-7 uPA), and one pancreatic cancer cell line (Mia PaCa-2). The breast cancer cell lines represent the multi-drug resistant (MDR) phenotype with MCF-7/Adr cells and a cell line that is transfected with the gene for urokinase plasminogen activator (uPA), the primary enzyme responsible for cleavage of plasminogen to plasmin. Rat cardiomyocytes served as a model for comparison of drug cardiotoxicity. Growth inhibition was also measured with added plasmin. aFK-PABC-Doxaz inhibited the growth of most of the cancer cells 0.5 log or more better than did aFK-PABA-Dox. Although not as dramatic, this differential response paralleled the differential response between Doxaz and Dox which is approximately two logs except for the MDR expressing, MCF-7/Adr cells which show more than three logs differential response. […] Addition of 0.01 unit/mL of plasmin has no effect on the activity of Dox but increases the activity of both aFK-PABC-Doxaz and aFK-PABC-Dox, in some cases by more than a log. Addition of 0.01 unit/mL plasminogen increases the activity of aFK-PABC-Doxaz on average by 0.3 log. […]

DU-145 = experiment: Growth inhibition of DU-145 prostate cancer cells; type: cell-based; conditions: for Cell growth inhibition IC50, DU-145: 24 h drug treatment, crystal violet
Description: as §1
(§6) SHP-77 small cell lung cancer cells were also of interest because they express modest amounts of both enzymes. Inhibition of the growth of cardiomyocytes was used as a measure of cardiotoxicity, and inhibition of the growth of Vero cells, green monkey kidney cells, was again used as another measure of toxicity to normal cells.
A more thorough characterization of the growth inhibition of a variety of cancer cells as well as rat cardiomyocytes by Formula IV (aFK-PABC-Doxaz) was evaluated in comparison with inhibition of growth by Doxaz, Dox and aFK-PABC-Dox. […] […] The breast cancer cell lines represent the multi-drug resistant (MDR) phenotype with MCF-7/Adr cells and a cell line that is transfected with the gene for urokinase plasminogen activator (uPA), the primary enzyme responsible for cleavage of plasminogen to plasmin. Rat cardiomyocytes served as a model for comparison of drug cardiotoxicity.

Vero cells = experiment: Growth inhibition of Vero cells as a measure of normal cell toxicity (MTT); type: cell-based, green monkey; conditions: 24 h drug treatment
Description: as §2, §6

SHP-77 = experiment: Growth inhibition of SHP-77 small cell lung cancer cells; type: cell-based; conditions: 24 h drug treatment; crystal violet
Description: as §6

[2] = 3 h drug treatment, crystal violet
[3] = 24 h drug treatment, crystal violet

COc1cccc2c1C(=O)c1c(O)c3c(c(O)c1C2=O)C[C@@](O)(C(=O)CO)C[C@@H]3O[C@H]1C[C@H](NCNC(=O)c2ccccc2O)[C@H](O)[C@H](C)O1 [DoxSF, doxsaliform, reference compound]
IC50 (MCF-7; 3 h drug treatment, growth at 5 days, read-out: IC50 MCF-7): 70 to 80 nM
IC50 (MCF-7/Adr; 3 h drug treatment, growth at 5 days): 800 to 2000 nM
IC50 (MDA-MB-435): 50 ± 9 nM
Less active than DoxF in cancer cell growth inhibition (cancer cells): 50 fold

CCOC(=O)N1COC2C(C)OC(OC3CC(O)(C(=O)CO)Cc4c(O)c5c(c(O)c43)C(=O)c3c(OC)cccc3C5=O)CC21 (centres unmarked) [Doxaz Ethyl Carbamate]
Growth inhibition IC50, MCF-7, 3 h (MCF-7; [2]): >−6 log of the molar concentration
IC50 (MCF-7; 24 h drug treatment, crystal violet, read-out: Growth inhibition IC50, MCF-7, 24 h): > 1000 nM
Growth inhibition IC50, MCF-7/Adr, 3 h (MCF-7/Adr; [2]): −5.3 ± 0.04 log of the molar concentration
Growth inhibition IC50, MCF-7/Adr, 24 h (MCF-7/Adr; crystal violet): >−5 log of the molar concentration
Growth inhibition IC50, SK-HEP-1, 3 h (SK-HEP-1; 3 h drug treatment): >−6 log of the molar concentration
Growth inhibition IC50, SK-HEP-1, 24 h (SK-HEP-1): >−6 log of the molar concentration
Growth inhibition IC50, Hep G2, 3 h (Hep G2; 3 h drug treatment): >−6 log of the molar concentration
Growth inhibition IC50, Hep G2, 24 h (Hep G2): >−6 log of the molar concentration
Growth inhibition IC50, H9c2(2-1), 3 h ([1]; 3 h drug treatment, MTT): −5.8 ± 0.2 log of the molar concentration

CCCCOC(=O)Nc1ccc(COC(=O)N2COC3C(C)OC(OC4CC(O)(C(=O)CO)Cc5c(O)c6c(c(O)c54)C(=O)c4c(OC)cccc4C6=O)CC32)cc1 (centres unmarked) [Butyl PABC-Doxaz]
Growth inhibition IC50, MCF-7, 24 h (MCF-7; [3]): −4.1 ± 0.3 log of the molar concentration
Growth inhibition IC50, MCF-7/Adr, 24 h (MCF-7/Adr; crystal violet): −5.9 ± 0.06 log of the molar concentration
Cell growth inhibition IC50, DU-145 (DU-145): −6.3 ± 0.3 log of molar concentrations
Growth inhibition IC50, SK-HEP-1, 24 h (SK-HEP-1): −5.8 ± 0.04 log of the molar concentration
Growth inhibition IC50, Hep G2, 24 h (Hep G2): −7.7 ± 0.03 log of the molar concentration
Growth inhibition IC50, H9c2(2-1), 24 h [1]: −7.2 ± 0.2 log of the molar concentration
Growth inhibition IC50, Vero, 24 h (Vero cells): −6.1 ± 0.08 log of the molar concentration
Cell growth inhibition IC50, SHP-77 (SHP-77): −7.1 ± 0.1 log of molar concentrations

COc1cccc2c1C(=O)c1c(O)c3c(c(O)c1C2=O)C[C@@](O)(C(=O)CO)C[C@@H]3O[C@H]1C[C@H](N)[C@@H](O)[C@H](C)O1 [Epi, Epidoxorubicin, reference compound]
IC50 (MCF-7; Homo sapiens, MCF7, read-out: IC50 MCF-7, 3 h drug treatment, growth at 5 days): 200 nM
IC50 (MCF-7/Adr; Homo sapiens, NCI/ADR-RES): > 10000 nM
IC50 (DU-145; Homo sapiens, DU-145, read-out: IC50 DU-145): 380 ± 52 nM

CCCCOC(=O)N1COC2C(C)OC(OC3CC(O)(C(=O)CO)Cc4c(O)c5c(c(O)c43)C(=O)c3c(OC)cccc3C5=O)CC21 (centres unmarked) [Doxaz Butyl Carbamate]
Growth inhibition IC50, MCF-7, 24 h (MCF-7; [3]): −6.1 ± 0.04 log of the molar concentration
Growth inhibition IC50, MCF-7/Adr, 24 h (MCF-7/Adr; crystal violet): −6.2 ± 0.3 log of the molar concentration
Cell growth inhibition IC50, DU-145 (DU-145): −6.4 ± 0.02 log of molar concentrations
Growth inhibition IC50, SK-HEP-1, 24 h (SK-HEP-1): −6.4 ± 0.2 log of the molar concentration
Growth inhibition IC50, Hep G2, 24 h (Hep G2): −6.7 ± 0.3 log of the molar concentration
Growth inhibition IC50, H9c2(2-1), 24 h [1]: −5.8 ± 0.2 log of the molar concentration
Growth inhibition IC50, Vero, 24 h (Vero cells): −6.3 ± 0.1 log of the molar concentration
Cell growth inhibition IC50, SHP-77 (SHP-77): −6.6 ± 0.3 log of molar concentrations
